Experimental data taken from paper PMC6290073, “Tropinone synthesis via an atypical polyketide synthase and P450-mediated cyclization” (Nature Communications, 2018).
Read-outs that look alike come from different tables or passages of the source.

Columns and labels:
[1] = biological target: T1, AbCYP82M3 (Atropa belladonna, UniProt A0A3G4RHY7); settings: 1 mM NADPH, pH 7.0, ionic strength 0.05, 20% glycerol, 30 °C
T1 construct: gene CYP82M3

[2] = biological target: T2, AbPYKS (Atropa belladonna, UniProt A0A3G4RHW3); settings: substrate inhibition constant, 25 mM potassium phosphate pH 8.0, 30 °C
T2 construct: gene OGAS

[3] = biological target: T2, AbPYKS; settings: apparent; 0.1 mM malonyl-CoA, 25 mM potassium phosphate pH 8.0, 30 °C
[4] = test system: CC(C)(COP(=O)(O)OP(=O)(O)OC[C@H]1O[C@@H](n2cnc3c(N)ncnc32)[C@H](O)[C@@H]1OP(=O)(O)O)[C@@H](O)C(=O)NCCC(=O)NCCSC(=O)CC(=O)O; experiment: purified protein; settings: apparent, 0.05 mM N-methyl-Δ^1-pyrrolinium, 25 mM potassium phosphate pH 8.0, 30 °C

T2 sequence (A0A3G4RHW3 1-392 limits assumed): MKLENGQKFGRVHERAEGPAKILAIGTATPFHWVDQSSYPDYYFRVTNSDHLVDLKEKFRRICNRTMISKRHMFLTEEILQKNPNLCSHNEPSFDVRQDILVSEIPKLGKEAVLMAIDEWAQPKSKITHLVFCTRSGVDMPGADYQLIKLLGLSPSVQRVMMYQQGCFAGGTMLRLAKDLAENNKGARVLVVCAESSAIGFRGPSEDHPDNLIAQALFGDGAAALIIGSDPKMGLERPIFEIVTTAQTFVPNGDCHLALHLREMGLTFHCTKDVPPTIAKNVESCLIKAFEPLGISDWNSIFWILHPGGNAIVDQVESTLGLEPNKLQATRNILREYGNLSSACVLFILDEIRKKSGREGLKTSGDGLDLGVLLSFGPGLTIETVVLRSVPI
T1 sequence (A0A3G4RHY7 1-519): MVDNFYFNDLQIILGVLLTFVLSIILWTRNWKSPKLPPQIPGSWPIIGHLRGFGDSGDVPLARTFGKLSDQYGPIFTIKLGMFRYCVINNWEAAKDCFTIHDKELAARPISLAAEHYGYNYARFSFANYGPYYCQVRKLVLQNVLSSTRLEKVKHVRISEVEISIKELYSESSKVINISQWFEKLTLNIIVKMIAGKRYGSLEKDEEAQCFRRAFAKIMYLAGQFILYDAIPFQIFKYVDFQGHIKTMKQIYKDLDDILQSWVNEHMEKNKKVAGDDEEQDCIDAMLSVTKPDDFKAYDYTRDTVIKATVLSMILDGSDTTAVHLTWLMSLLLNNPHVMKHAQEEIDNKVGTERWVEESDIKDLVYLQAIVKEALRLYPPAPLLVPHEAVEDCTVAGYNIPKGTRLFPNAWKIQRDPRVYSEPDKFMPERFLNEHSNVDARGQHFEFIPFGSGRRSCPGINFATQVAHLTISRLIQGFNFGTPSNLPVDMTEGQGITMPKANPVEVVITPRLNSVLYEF

CN1CCCC1CC(=O)CC(=O)O (racemic) [compound 5, 4-(1-methyl-2-pyrrolidinyl)-3-oxobutanoic acid]
Km [1]: 631 ± 26 µM

CC(C)(COP(=O)(O)OP(=O)(O)OC[C@H]1O[C@@H](n2cnc3c(N)ncnc32)[C@H](O)[C@@H]1OP(=O)(O)O)[C@@H](O)C(=O)NCCC(=O)NCCSC(=O)CC(=O)O [Malonyl-CoA]
K i / ([2]; 0.05 mM N-methyl-Δ^1-pyrrolinium): 280 ± 0.9 µM

C[N+]1=CCCC1 [compound 4, N-methyl-Δ^1-pyrrolinium]
K i / ([2]; 0.1 mM malonyl-CoA): 103 ± 16 µM | Km [3]: 10 ± 0.6 µM

AbPYKS (Atropa belladonna)
Km [4]: 12 ± 1 µM | Vmax [4]: 13.8 µmol/min/mg | kcat [4]: 10 ± 0.1 s⁻¹ | kcat/Km [4]: 848000 ± 90000 M⁻¹ s⁻¹
